# According to patent US20250296959A1, “B7-H3 TARGETING PEPTIDES AND CONSTRUCTS THEREOF” (Mariana Oncology Inc., priority 2024, published 2025):
# Starred links: 1 amine or outer side, 2 acyl side, 3 side chain; linkers in the order of their positions; H or OH if unused. Positions of bridges follow the written chain, without caps; N, C: chain ends. Non-standard residues stand in square brackets, D forms with d. Residues, ends and D or L forms follow the SMILES beside them. Groups on a side chain read outwards from the residue. *: point of attachment. Ala(piperidin-4-yl) = O=C([C@H](CC1CCN([*:3])CC1)N[*:1])[*:2]; DOTA = O=C(O)CN1CCN(CC(=O)O)CCN(CC(=O)*)CCN(CC(=O)O)CC1; Trp(5-F) = N[C@@H](Cc1c[nH]c2ccc(F)cc12)C(=O)O; X13 = NC(=O)N1CCC(C[C@H](N[*:1])C(=O)[*:2])CC1; X1 = C[C@@H](c1ccccc1)[C@H](N[*:1])C(=O)[*:2]; X11 = O=C(CCCc1ccc(I)cc1)NCCOCCOCCOCCOCC(=O)*; γGlu = O=C(O)[C@H](CCC(=O)[*:2])N[*:1]; 2Nal = N[C@@H](Cc1ccc2ccccc2c1)C(=O)O; Ala(4-THP) = N[C@@H](CC1CCOCC1)C(=O)O; Phe(2-Me) = Cc1ccccc1C[C@H](N)C(=O)O; Val(3-OH) = CC(C)(O)[C@H](N)C(=O)O; hCha = N[C@@H](CCC1CCCCC1)C(=O)O; aThr = C[C@H](O)[C@H](N)C(=O)O; PEG4 = NCCOCCOCCOCCOCCC(=O)O; Tle = CC(C)(C)[C@H](N)C(=O)O; hLeu = CC(C)CC[C@H](N)C(=O)O
# Target: T1, human 4lg B7-H3 (Homo sapiens, UniProt Q5ZPR3)
# T1 sequence (Q5ZPR3 29-534): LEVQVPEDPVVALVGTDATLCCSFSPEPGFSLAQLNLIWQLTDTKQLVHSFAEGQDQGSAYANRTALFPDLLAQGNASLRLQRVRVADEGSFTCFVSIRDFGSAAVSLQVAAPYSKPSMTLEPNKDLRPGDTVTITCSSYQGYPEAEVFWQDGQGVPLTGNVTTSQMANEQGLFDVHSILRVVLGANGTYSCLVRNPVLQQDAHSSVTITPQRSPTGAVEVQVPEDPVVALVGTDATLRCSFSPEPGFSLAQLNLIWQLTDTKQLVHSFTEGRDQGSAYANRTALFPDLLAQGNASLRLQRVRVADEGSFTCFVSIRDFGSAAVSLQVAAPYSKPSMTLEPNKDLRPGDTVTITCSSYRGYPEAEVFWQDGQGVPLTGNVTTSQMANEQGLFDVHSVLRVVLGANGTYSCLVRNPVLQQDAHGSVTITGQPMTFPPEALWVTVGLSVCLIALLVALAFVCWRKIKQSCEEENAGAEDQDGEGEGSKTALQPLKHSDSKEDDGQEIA
# Assay: Affinity determination by surface plasmon resonance (SPR) to 4Ig B7-H3
# Conditions: SPR KD—25° C., 4Ig B7-H3; 25° C. flow cell temperature
row,Kd [nM],SMILES
1,10 to 100,"CC(=O)N[C@@H](CCC(C)C)C(=O)N[C@@H](Cc1ccc(O)cc1)C(=O)N[C@H]1CSSC[C@@H](C(=O)N[C@@H](Cc2ccc3ccccc3c2)C(=O)N[C@@H](Cc2ccccc2)C(=O)N[C@H](C(=O)N[C@H](CCCCNC(=O)CN2CCN(CC(=O)O)CCN(CC(=O)O)CCN(CC(=O)O)CC2)C(=O)O)[C@@H](C)O)NC(=O)[C@H](Cc2ccc(O)cc2)NC(=O)[C@H](C(C)C)NC(=O)[C@H](CC(=O)O)NC(=O)[C@H](Cc2ccc(O)cc2)NC(=O)[C@H](CCCCN)NC(=O)CNC(=O)[C@H](C(C)C)NC1=O [compound 159, Ac-hLeu-Y-C-V-G-K-Y-D-V-Y-C-2Nal-F-Thr-dLys(DOTA)-CONH2] (Ac-[hLeu]YCVGKYDVYC[2Nal]FT[dK](DOTA)-OH; disulfide 3-11)"
2,100 to 300,"CC(=O)N[C@@H](CCC(C)C)C(=O)N[C@@H](Cc1ccc(O)cc1)C(=O)N[C@H]1CSSC[C@@H](C(=O)N[C@@H](Cc2c[nH]c3ccccc23)C(=O)N[C@@H](Cc2ccccc2)C(=O)N[C@H](C(=O)N[C@H](CCCCNC(=O)CN2CCN(CC(=O)O)CCN(CC(=O)O)CCN(CC(=O)O)CC2)C(N)=O)[C@@H](C)O)NC(=O)[C@H](Cc2ccc(O)cc2)NC(=O)[C@H]([C@H](C)O)NC(=O)[C@H](CC(=O)O)NC(=O)[C@H](Cc2ccc(O)cc2)NC(=O)[C@H](CCCCN)NC(=O)CNC(=O)[C@H](C(C)C)NC1=O [compound 125, Ac-hLeu-Y-C-V-G-K-Y-D-alloThr-Y-C-W-F-Thr-dLys(DOTA)-CONH2] (Ac-[hLeu]YCVGKYD[aThr]YCWFT[dK](DOTA)-NH2; disulfide 3-11)"

# Same assay, conditions: SPR KD—37° C., 4Ig B7-H3; 37° C. flow cell temperature
row,SMILES,Kd [nM]
1,"CC(=O)N[C@@H](CCC(C)C)C(=O)N[C@@H](Cc1ccc(O)cc1)C(=O)N[C@H]1CSSC[C@@H](C(=O)N[C@@H](Cc2c[nH]c3ccc(F)cc23)C(=O)N[C@@H](Cc2ccccc2C)C(=O)N[C@H](C(=O)N[C@H](CCCCNC(=O)CN2CCN(CC(=O)O)CCN(CC(=O)O)CCN(CC(=O)O)CC2)C(=O)O)C(C)(C)O)NC(=O)[C@H](Cc2ccc(O)cc2)NC(=O)[C@H](C(C)C)NC(=O)[C@H](CC(=O)O)NC(=O)[C@H](CC2CCOCC2)NC(=O)[C@H](CC2CCNCC2)NC(=O)CNC(=O)[C@H](C(C)(C)C)NC1=O [compound 456, Ac-hLeu-Y-C-Tbg-G-PipAla-ThpA-D-V-Y-C-5FW-2MePhe-hydroxyVal-dLys(DOTA)-COOH] (Ac-[hLeu]YC[Tle]G[Ala(piperidin-4-yl)][Ala(4-THP)]DVYC[Trp(5-F)][Phe(2-Me)][Val(3-OH)][dK](DOTA)-OH; disulfide 3-11)",< 1
2,"CC(=O)N[C@@H](CCC1CCCCC1)C(=O)N[C@@H](Cc1ccc(O)cc1)C(=O)N[C@H]1CSSC[C@@H](C(=O)N[C@@H](Cc2c[nH]c3ccc(F)cc23)C(=O)N[C@@H](Cc2ccccc2)C(=O)N[C@H](C(=O)N[C@H](C)C(=O)O)C(C)(C)O)NC(=O)[C@H](Cc2ccc(O)cc2)NC(=O)[C@H](C(C)C)NC(=O)[C@H](CC(=O)O)NC(=O)[C@H](CC2CCOCC2)NC(=O)[C@H](CC2CCN(C(=O)CC[C@H](NC(=O)CN3CCN(CC(=O)O)CCN(CC(=O)O)CCN(CC(=O)O)CC3)C(=O)O)CC2)NC(=O)CNC(=O)[C@H](C(C)(C)C)NC1=O [compound 486, Ac-hCha-Y-C-Tbg-G-Pip(gE-DOTA)Ala-ThpA-D-V-Y-C-5FW-F-hydroxyVal-dAla-COOH] (Ac-[hCha]YC[Tle]G[Ala(piperidin-4-yl)]([γGlu-DOTA])[Ala(4-THP)]DVYC[Trp(5-F)]F[Val(3-OH)][dA]-OH; disulfide 3-11)",< 1

# Other lines, results leading:
row,Kd [nM],SMILES
1,1 to 10,"CC(=O)N[C@@H](CCC(C)C)C(=O)N[C@@H](Cc1ccc(O)cc1)C(=O)N[C@H]1CSSC[C@@H](C(=O)N[C@@H](Cc2c[nH]c3ccc(F)cc23)C(=O)N[C@@H](Cc2ccccc2)C(=O)N[C@H](C(=O)N[C@H](CCCCNC(=O)CN2CCN(CC(=O)O)CCN(CC(=O)O)CCN(CC(=O)O)CC2)C(=O)O)C(C)(C)O)NC(=O)[C@H](Cc2ccc(O)cc2)NC(=O)[C@H](C(C)C)NC(=O)[C@H](CC(=O)O)NC(=O)[C@H](CC2CCOCC2)NC(=O)[C@H](CC2CCN(C(=O)COCCOCCOCCOCCNC(=O)CCCc3ccc(I)cc3)CC2)NC(=O)CNC(=O)[C@H](C(C)(C)C)NC1=O [Cpd #364, Ac-hLeu-Y-C-Tbg-G-Pip(PEG4-AB)Ala-ThpA-D-V-Y-C-5FW-F-hydroxyVal-dLys(DOTA)-COOH] (Ac-[hLeu]YC[Tle]G[Ala(piperidin-4-yl)](X11)[Ala(4-THP)]DVYC[Trp(5-F)]F[Val(3-OH)][dK](DOTA)-OH; disulfide 3-11)"
2,< 1,"CC(=O)N[C@@H](CCC(C)C)C(=O)N[C@@H](Cc1ccc(O)cc1)C(=O)N[C@H]1CSSC[C@@H](C(=O)N[C@@H](Cc2c[nH]c3ccc(F)cc23)C(=O)N[C@H](C(=O)N[C@H](C(=O)N[C@H](C)C(=O)O)C(C)(C)O)[C@@H](C)c2ccccc2)NC(=O)[C@H](Cc2ccc(O)cc2)NC(=O)[C@H](C(C)C)NC(=O)[C@H](CC(=O)O)NC(=O)[C@H](CC2CCN(C(=O)CCOCCOCCOCCOCCNC(=O)CN3CCN(CC(=O)O)CCN(CC(=O)O)CCN(CC(=O)O)CC3)CC2)NC(=O)[C@H](CC2CCN(C(N)=O)CC2)NC(=O)CNC(=O)[C@H](C(C)(C)C)NC1=O [compound 514, Ac-hLeu-Y-C-Tbg-G-Pip(CONH2)Ala-Pip(PEG4-DOTA)Ala-D-V-Y-C-5FW-[(2S, 3S)beta-Me-Phe]-hydroxyVal-dAla-COOH] (Ac-[hLeu]YC[Tle]G[X13][Ala(piperidin-4-yl)]([PEG4-DOTA])DVYC[Trp(5-F)][X1][Val(3-OH)][dA]-OH; disulfide 3-11)"
